Measurements reported in patent US4696920A, “Certain 2-substituted 1,3-propylidenediphosphonate derivatives, pharmaceutical compositions containing them and their use as antihypertensive agents” (priority 1984, dated 1987).
Read-outs that look alike come from different tables or passages of the source.

Key:
[1] = system: calcium channel binding site for [^3 H]-Nitrendipine (rat brain membranes); assay: [^3 H]-Nitrendipine binding to rat brain membranes; design: species or system rat (male Wistar); conditions: for Specifically bound [^3 H]-Nitrendipine % of control value: compound concentration 1.0 μM; for Specifically bound [^3 H]-Nitrendipine % of control value / Bound ^3 H at 1.0 μM / Bound ^3 H at 0.1 μM / modulation of [^3 H]-Nitrendipine binding (in words): Table 1a; for Bound ^3 H at 1.0 μM / Bound ^3 H at 0.1 μM: ratio of [^3 H]-Nitrendipine bound at 1.0 and 0.1 μM compound
Description: Diltiazem hydrochloride was a generous gift from Goedecke A. G.
Suitable dilutions were made in 50 mM Tris-HCl buffer (pH 7.4) containing 150 mM NaCl and 1 mM CaCl2. The ethanol concentration in the final assay never exceeded 0.1%.
The purity of the radioligand and of the various agents tested was monitored by thin layer chromatography on silica gel plates.
The following procedure was adapted from Bellemann et al (Proc. Nat. Acad. Sci. 80, 2356, 1983), and Gould et al (Proc. Nat. Acad. Sci. 79, 3656, 1982).
Adult male Wistar rats weighing 250-300 g were anesthetized with carbon dioxide prior to decapitation. The brain was removed then immersed in ice-cold 0.32M sucrose and washed 2-3 times with fresh solution. Cerebral cortex was minced and homogenized (Potter-Elvehjem homogenizer) in 10 volumes of ice-cold sucrose solution. The homogenate was centrifuged (4° C.) at 1000×g for 15 minutes. The resulting supernatant was then centrifuged at 90000×g (30 minutes) and the pellet was washed twice with 20 ml ice-cold 50 mM Tris-HCl pH 7.4.
The final pellet was resuspended in 50 mM Tris-HCl pH 7.4/150 mM NaCl/1 mM CaCl2 to give a protein concentration of 4 mg/ml.
The membrane suspension was kept on ice until used. Binding assays were performed in subdued light to prevent dihydropyridine breakdown. Membrane protein (400 μg/tube) was incubated in 50 mM Tris-HCl buffer (pH 7.4)/150 mM NaCl/1 mM CaCl2 with the indicated concentrations of radioligand and test compounds or known calcium antagonists, in a total volume of 2 ml. After the indicated time intervals, the reaction was terminated by rapid filtration through Whatman GF/B glass fiber filters (2.4 cm diameter) on a Millipore filter holder. The assay tube was rinsed with 2 ml ice-cold 50 mM Tris-HCl pH (7.4) and the precipitate was further washed with 2×5 ml of the same buffer.
Filters were dried under a heat lamp and were extracted with 10 ml of liquid scintillation cocktail (Toluene/Triton X-100, 2/1 containing 4 g Omnifluor/1) prior to tritium determination at 48% counting efficiency.
Assays were performed in duplicate or triplicate.
Data were expressed as percent specific [^3 H]-Nitrendipine binding relative to the established control value.
Compound activity in the [^3 H]-Nitrendipine binding assay was evaluated by using the following criteria:
1. [^3 H]-Nitrendipine binding at 1.0 μM compound final concentration was either below 95% or above 105% of the control value determined in absence of compound.
2. […] This ratio is indicative of a dose response relationship within the compound concentration range tested, when the value differs appreciably from 1.0.

[2] = system: rat trachea contraction induced by KCl depolarization; assay: KCl-induced rat trachea contraction; design: species or system rat (male SHR, Okamoto-Aoki); conditions: for activity at 1 µM: Rattus norvegicus, 40 min, read-out: Contraction (% max.)
Description: Spontaneously hypertensive male rats (SHR) Okamoto-Aoki Strain, weighing 300-400 g were used in this study. They were killed by bleeding after Pentobarbital anesthesia (Nembutal, Abbott Co, 40 mg/kg). Their entire trachea was quickly removed and dissected free of fat and connective tissue in Krebs-Ringer solution. A strip (4 mm×40 mm), obtained by spirally cutting the trachea, was immediately suspended in a 50 ml Krebs-Ringer solution and continuously bubbled with a O2 /CO2 (95/5) mixture. Bath temperature was maintained at 37±1° C. The composition (mM) of the Krebs-Ringer solution modified by Nghiem, was as follows: NaCl, (118.0); KCl, (4.7); CaCl2, (2.5); MgCl2, (1.18); NaHCO3, (12.5); KH2 P04, (1.18); glucose, (5.5) in bidistilled water (pH 7.4). Each strip was equilibrated under initial tension (1.5-2 g) for 1-2 hours and the bath solution changed every 30 min. A contractile or relaxant response was isometrically measured with a force-displacement transducer (Ugo-Basile) and recorded on a polygraph (Beckman).
After equilibration, KCl was added to the bath at 65 mM final concentration. This concentration produced maximum trachea contraction. Under these conditions, a plateau phase showing a tonic sustained contraction was reached within 30 minutes. Drugs were added 30 minutes after the plateau phase has been reached (final concentration=1.0 μM). […] Recordings of the residual trachea contraction were made 40 minutes after drug addition to the bathing fluid. The initial KCl induced contraction was taken as the maximum KCl response (100%). Results were expressed as % of maximal contraction. Nifedipine, Prenylamine, Flunarizine and Diltiazem were used as reference standards to validate this assay.
All 1,3-diphosphonates and drugs were dissolved in saline (0.9% NaCl) except when water insoluble, then the compounds were dissolved in 2% ethanol. The final concentration of ethanol used has been shown not to interfere with the assay.
Results are expressed as mean values±SEM, the Student's t-test was used for statistical analysis.

[3] = final concentration 1.0 μM, 65 mM KCl, 40 minutes after drug addition, mean ± SEM

Structure (SMILES) | Specifically bound [^3 H]-Nitrendipine % of control value [1] | Bound ^3 H at 1.0 μM / Bound ^3 H at 0.1 μM [1] | activity at 1 µM [2] | activity on KCl-induced trachea contraction (in words) ([2]; final concentration 1.0 μM) | modulation of [^3 H]-Nitrendipine binding (in words) [1] | activity at 1 µM [2, 3] | % [^3 H]-Nitrendipine bound ([1]; reference standards at 1 μM)
O=P(O)(O)CC(Cc1ccccc1)CP(=O)(O)O [Compound 2, 2-Benzyl-1,3-propylidenediphosphonic acid] | 98 % of control value | 1.002 |  |  |  |  | 
O=P(O)(O)CC(CCc1ccccc1)CP(=O)(O)O [Compound 3] | 94 % of control value | 0.955 |  |  |  |  | 
O=P(O)(O)CC(CCCc1ccccc1)CP(=O)(O)O [Compound 4] | 99 % of control value | 0.957 |  |  |  |  | 
O=P(O)(O)CC(Cc1ccc(Cl)cc1)CP(=O)(O)O [Compound 5] | 99 % of control value | 1.003 |  |  |  |  | 
COP(=O)(CC(Cc1ccccc1)CP(=O)(OC)OC)OC [Compound 10, Tetramethyl 2-benzyl-1,3-propylidenediphosphonate] | 92 % of control value | 0.983 | 91% |  |  |  | 
COP(=O)(CC(CCc1ccccc1)CP(=O)(OC)OC)OC [Compound 11] | 96 % of control value | 1.024 |  |  |  |  | 
CCOP(=O)(CC(Cc1cccc2ccccc12)CP(=O)(OCC)OCC)OCC [Compound 37] | 104 % of control value | 1.011 | 53.8 ± 0.4% | potent pharmacological activity |  |  | 
CCOP(=O)(CC(Cc1ccc(-c2ccccc2)cc1)CP(=O)(OCC)OCC)OCC [Compound 38] | 60 % of control value | 0.721 | 84 ± 2.4% | potent pharmacological activity | strong inhibitors |  | 
CCOP(=O)(CC(CP(=O)(OCC)OCC)C(c1ccccc1)c1ccccc1)OCC [Compound 39] | 110 % of control value | 1.220 | 96 ± 4.9% |  |  |  | 
CCOP(=O)(CC(CP(=O)(OCC)OCC)c1ccccn1)OCC [Compound 40] | 100 % of control value | 0.978 | 61.2 ± 4.6% | potent pharmacological activity |  |  | 
CC(C)OP(=O)(CC(CCCc1ccccc1)CP(=O)(OC(C)C)OC(C)C)OC(C)C [Compound 56] | 115 % of control value | 1.115 | 100% |  | activators |  | 
CCCCCC(CP(=O)(OCCCC)OCCCC)CP(=O)(OCCCC)OCCCC [Compound 66] | 26 % of control value | 0.387 | 88.5 ± 0.5% |  | strong inhibitors |  | 
CCCCOP(=O)(CC(CCCC1CCCCC1)CP(=O)(OCCCC)OCCCC)OCCCC [Compound 68, Tetrabutyl 2-(3-Cyclohexylpropyl)-1,3-propylidenediphosphonate] | 0 % of control value | 0.000 | 100 ± 4% |  | strong inhibitors |  | 
CCCCOP(=O)(CC(Cc1ccc(-c2ccccc2)cc1)CP(=O)(OCCCC)OCCCC)OCCCC [Compound 84] | 80 % of control value | 0.886 | 98.5 ± 2.5% |  |  |  | 
CCCCOP(=O)(CC(CP(=O)(OCCCC)OCCCC)C(c1ccccc1)c1ccccc1)OCCCC [Compound 85] | 112 % of control value | 1.082 | 96.2 ± 0.8% |  |  |  | 
CCCCOP(=O)(CC(CP(=O)(OCCCC)OCCCC)c1ccccn1)OCCCC [Compound 86] | 98 % of control value | 1.052 | 89 ± 2% |  |  |  | 
CCCCOP(=O)(CC(Cc1ccncc1)CP(=O)(OCCCC)OCCCC)OCCCC [Compound 87] | 93 % of control value | 0.967 | 71.9 ± 1.9% | potent pharmacological activity |  |  | 
CCCCOP(=O)(CC(CCCc1cccnc1)CP(=O)(OCCCC)OCCCC)OCCCC [Compound 88] | 69 % of control value | 0.760 | 56.3 ± 5.9% | potent pharmacological activity | strong inhibitors |  | 
CC(C)COP(=O)(CC(CCCc1ccccc1)CP(=O)(OCC(C)C)OCC(C)C)OCC(C)C [Compound 111] | 57 % of control value | 0.809 |  |  |  | 100 ± 1.5% | 
CCCCCOP(=O)(CC(CCCc1ccccc1)CP(=O)(OCCCCC)OCCCCC)OCCCCC [Compound 112, Tetrapentyl 2-(3-phenylpropyl)-1,3-propylidenediphosphonate] | 0 % of control value | 0.645 |  |  |  | 84 ± 3% | 
CCCCCCOP(=O)(CC(CCCc1ccccc1)CP(=O)(OCCCCCC)OCCCCCC)OCCCCCC [Compound 113, Tetrahexyl 2-(3-phenylpropyl)-1,3-propylidenediphosphonate] | 20 % of control value | 0.621 |  |  | strong inhibitors | 90 ± 1.5% | 
CCCCCOP(=O)(CC(CCCc1ccccc1)CP(=O)(OCC)OCCCCC)OCC (stereo not drawn) [Compound 117, Bis(ethyl, pentyl) 2-(3-phenylpropyl)-1,3-propylidenediphosphonate] | 79 % of control value | 0.950 | 60 ± 4% | potent pharmacological activity | strong inhibitors |  | 
CCN(CC)CCCCCCCCOC(=O)c1cc(OC)c(OC)c(OC)c1 [TMB-8, reference compound] |  |  |  |  |  |  | 95%
